Test results taken from article PMC8780855, “Synthesis, Crystallographic, Quantum Chemical, Antitumor, and Molecular Docking/Dynamic Studies of 4-Hydroxycoumarin-Neurotransmitter Derivatives” (International Journal of Molecular Sciences, 2022).
Read-outs that look alike come from different tables or passages of the source.

Tests used:
MDA-MB-231 cells = assay: MTT cytotoxicity assay, MDA-MB-231; format: cell-based; settings: Homo sapiens
Description: (§1) The in vitro cytotoxic activity of the tested compounds was investigated on four model systems: human colorectal carcinoma HCT-116, human breast cancer MDA-MB-231, human cervical cancer HeLa, and human healthy fibroblast MRC-5 cell lines. The cell lines of low passages were purchased from ECACC and were cultivated in Dulbecco’s Modified Eagle Medium (DMEM; Sigma-Aldrich, Germany, D5796) supplemented with 10% fetal bovine serum (Sigma-Aldrich, F4135-500ML) and 1% penicillin/streptomycin (Sigma-Aldrich, P4333-100ML) in 75 cm^2 culture flasks. The cells were harvested in an incubator under a humidified atmosphere with 5% CO2 at a physiological temperature of 37 °C, and after a few passages and a confluence of about 90%, the cells were used for the MTT assay.
(§2) The capacity of tested compounds to prevent the growth of four different cell lines was assessed by a standardized MTT assay (Laboratory for Bioengineering protocol CB-005, Kragujevac, Serbia), based on spectrophotometric measurement of the reduction of 3-(4,5-dimethylthiazol-2-yl)-2,5-diphenyltetrazolium bromide (MTT, Acros Organics, NJ, USA 158990010) to purple formazan crystals subsequently dissolved in dimethyl sulfoxide (DMSO; Fisher Chemical, IL, USA D/4121/PB15). A number of 1 × 10^4 cells per well (in 96-well microplates) were seeded and maintained in an incubator for 24 h to allow for cell attachment. After the incubation period, the cells were treated with the investigated compounds in the concentration range from 0.1 to 500 µM dissolved in DMEM. Cytotoxic effect was calculated 24 and 72 h from treatment by determination of the number of viable cells. The absorbance measured at 550 nm and was performed on a microplate reader (Rayto 2100C, China). The cytotoxicity was derived as the ratio of the absorbance of the treated cells divided with the absorbance of negative control (untreated cells) and multiplied by 100 to obtain the percentage of the viable cells.

HeLa cells = assay: MTT cytotoxicity assay, HeLa; format: cell-based, human; settings: for IC50: Homo sapiens, HeLa, MTT; for Selectivity index HeLa/MRC-5 24 h: SI between HeLa and MRC-5, 24 h; for Selectivity index HeLa/MRC-5 72 h: SI between HeLa and MRC-5, 72 h
Description: as §1, §2

HCT-116 cells = assay: MTT cytotoxicity assay, HCT-116; format: cell-based, human; settings: for IC50: Homo sapiens, MTT; for Selectivity index HCT-116/MRC-5 24 h: SI between HCT-116 and MRC-5, 24 h; for Selectivity index HCT-116/MRC-5 72 h: SI between HCT-116 and MRC-5, 72 h
Description: as §1, §2

MRC-5 cells = assay: MTT cytotoxicity assay, MRC-5 healthy fibroblasts; format: cell-based; settings: Homo sapiens
Description: as §1, §2

[1] = MDA-MB-231, 72 h exposure, read-out: IC50 MDA-MB-231 72 h
[2] = read-out: IC50 MDA-MB-231 24 h, MDA-MB-231, 24 h exposure
[3] = read-out: IC50 HeLa 24 h, 24 h exposure
[4] = 72 h exposure, read-out: IC50 HeLa 72 h
[5] = read-out: IC50 HCT-116 24 h, HCT-116, 24 h exposure
[6] = HCT-116, 72 h exposure, read-out: IC50 HCT-116 72 h
[7] = MRC5, MRC-5, 72 h exposure, read-out: IC50 MRC-5 72 h
[8] = MRC5, read-out: IC50 MRC-5 24 h, MRC-5, 24 h exposure

Structure (SMILES): CC(NCCc1ccc(O)c(O)c1)=C1C(=O)Oc2ccccc2C1=O [L5, 3-(1-((3,4-dihydroxyphenethyl)amino)ethylidene)-chroman-2,4-dione]
- IC50 (MDA-MB-231 cells; [1]): > 500 µM
- IC50 (MDA-MB-231 cells; [2]): > 500 µM
- IC50 (HeLa cells; [3]): > 500 µM
- IC50 (HeLa cells; [4]): 92 µM
- Selectivity index HeLa/MRC-5 24 h (HeLa cells): 1
- Selectivity index HeLa/MRC-5 72 h (HeLa cells): 5.4
- IC50 (HCT-116 cells; [5]): > 500 µM
- IC50 (HCT-116 cells; [6]): 73 µM
- Selectivity index HCT-116/MRC-5 24 h (HCT-116 cells): 1
- Selectivity index HCT-116/MRC-5 72 h (HCT-116 cells): 6.8
- IC50 (MRC-5 cells; [7]): > 500 µM
- IC50 (MRC-5 cells; [8]): > 500 µM

Structure (SMILES): C/C(NCC(O)c1ccc(O)c(O)c1)=C1\C(=O)Oc2ccccc2C1=O (stereo not drawn) [L3, (E)-3-(1-((2-(3,4-dihydroxyphenyl)-2-hydroxyethyl)amino)ethylidene)chromane-2,4-dione]
- IC50 (MDA-MB-231 cells; [1]): > 500 µM
- IC50 (MDA-MB-231 cells; [2]): > 500 µM
- IC50 (HeLa cells; [3]): > 500 µM
- IC50 (HeLa cells; [4]): 495 µM
- Selectivity index HeLa/MRC-5 24 h (HeLa cells): 1
- Selectivity index HeLa/MRC-5 72 h (HeLa cells): 1
- IC50 (HCT-116 cells; [5]): > 500 µM
- IC50 (HCT-116 cells; [6]): 107 µM
- Selectivity index HCT-116/MRC-5 24 h (HCT-116 cells): 1
- Selectivity index HCT-116/MRC-5 72 h (HCT-116 cells): 4.7
- IC50 (MRC-5 cells; [7]): > 500 µM
- IC50 (MRC-5 cells; [8]): > 500 µM

Structure (SMILES): C/C(NCCc1ccc(O)cc1)=C1\C(=O)Oc2ccccc2C1=O [L1, (E)-3-(1-((4-hydroxyphenethyl)amino)ethylidene)chromane-2,4-dione]
- IC50 (MDA-MB-231 cells; [1]): > 500 µM
- IC50 (MDA-MB-231 cells; [2]): > 500 µM
- IC50 (HeLa cells; [3]): > 500 µM
- IC50 (HeLa cells; [4]): 452 µM
- Selectivity index HeLa/MRC-5 24 h (HeLa cells): 1
- Selectivity index HeLa/MRC-5 72 h (HeLa cells): 1.1
- IC50 (HCT-116 cells; [5]): > 500 µM
- IC50 (HCT-116 cells; [6]): 170 µM
- Selectivity index HCT-116/MRC-5 24 h (HCT-116 cells): 1
- Selectivity index HCT-116/MRC-5 72 h (HCT-116 cells): 2.9
- IC50 (MRC-5 cells; [7]): > 500 µM
- IC50 (MRC-5 cells; [8]): > 500 µM

Structure (SMILES): COc1cc(CCN/C(C)=C2/C(=O)Oc3ccccc3C2=O)ccc1O [L4, (E)-3-(1-((4-hydroxy-3-methoxyphenethyl)amino)ethylidene)chromane-2,4-dione]
- IC50 (MDA-MB-231 cells; [1]): > 500 µM
- IC50 (MDA-MB-231 cells; [2]): > 500 µM
- IC50 (HeLa cells; [3]): > 500 µM
- IC50 (HeLa cells; [4]): 150 µM
- Selectivity index HeLa/MRC-5 24 h (HeLa cells): 1
- Selectivity index HeLa/MRC-5 72 h (HeLa cells): 3.3
- IC50 (HCT-116 cells; [5]): > 500 µM
- IC50 (HCT-116 cells; [6]): 74 µM
- Selectivity index HCT-116/MRC-5 24 h (HCT-116 cells): 1
- Selectivity index HCT-116/MRC-5 72 h (HCT-116 cells): 6.8
- IC50 (MRC-5 cells; [7]): > 500 µM
- IC50 (MRC-5 cells; [8]): > 500 µM

Structure (SMILES): C/C(NCC(O)c1ccc(O)cc1)=C1\C(=O)Oc2ccccc2C1=O (stereo not drawn) [L2, (E)-3-(1-((2-hydroxy-2-(4-hydroxyphenyl)ethyl)amino)ethylidene)chromane-2,4-dione]
- IC50 (MDA-MB-231 cells; [1]): > 500 µM
- IC50 (MDA-MB-231 cells; [2]): > 500 µM
- IC50 (HeLa cells; [3]): > 500 µM
- IC50 (HeLa cells; [4]): 206 µM
- Selectivity index HeLa/MRC-5 24 h (HeLa cells): 1
- Selectivity index HeLa/MRC-5 72 h (HeLa cells): 2.4
- IC50 (HCT-116 cells; [5]): > 500 µM
- IC50 (HCT-116 cells; [6]): 248 µM
- Selectivity index HCT-116/MRC-5 24 h (HCT-116 cells): 1
- Selectivity index HCT-116/MRC-5 72 h (HCT-116 cells): 2.0
- IC50 (MRC-5 cells; [7]): > 500 µM
- IC50 (MRC-5 cells; [8]): > 500 µM
